Test results reported in the NIST ThermoML archive (doi:10.1016/j.jct.2017.07.009).

Settings: 1410 K; Crystal; Calculated from knudsen effusion weight loss

vapor or sublimation pressure: 0.00842 kPa
Structure (SMILES): [O-2].[Zn+2] [zinc(II) oxide]
